Series [1] addresses T1, GAL4-PPAR γ chimeric nuclear receptor (human PPAR γ ligand binding domain) (Homo sapiens, UniProt P37231).
T1 construct: expressed in transfected cells; host or cells: HEK293EBNA cells, transient transfection with SuperFect
T1 sequence (P37231 174-475 isoform P37231-2): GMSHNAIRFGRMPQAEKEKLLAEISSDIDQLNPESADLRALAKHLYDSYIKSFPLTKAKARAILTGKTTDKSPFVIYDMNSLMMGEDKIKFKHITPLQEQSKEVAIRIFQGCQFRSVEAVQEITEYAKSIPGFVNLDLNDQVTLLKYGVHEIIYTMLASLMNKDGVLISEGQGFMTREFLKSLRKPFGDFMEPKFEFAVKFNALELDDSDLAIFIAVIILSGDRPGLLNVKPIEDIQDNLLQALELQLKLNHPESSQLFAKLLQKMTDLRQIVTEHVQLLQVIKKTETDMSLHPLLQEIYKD
Kind of series: PPAR γ transactivation assay by transient gene transfer (GAL4-PPAR γ chimeric receptor, luciferase reporter, HEK293EBNA cells). The series is classed as cell-based. The note with it: concentration showing 50% of efficacy (maximum activity rate relative to pioglitazone = 100%), 24 hr. As for the experimental part:
The agonist activity of the test compound to PPAR γ was determined by a transactivation assay method using a chimeric nuclear receptor of a DNA binding region of a yeast transcription factor GAL4 and a PPAR γ ligand binding region. Specifically, the PPAR γ agonist activity of the test compound was evaluated by the following method based on the method of Lehmann et al. (J Biol. Chem., 1995, vol. 270, page 12953).
HEK293EBNA cells cultured in Dulbecco's Modified Eagle medium (Invitrogen) containing 10 v/v % fetal bovine serum (Invitrogen) were used. 30 mL of the above-mentioned cells (density: 1×10^5 cells/mL) were inoculated in a […] (Iwaki Glass), and cultured overnight. Using SuperFect Transfection Reagent (QIAGEN), a plasmid expressing a GAL4-PPAR γ chimeric nuclear receptor fusing 174-475 amino acids, which are human PPAR γ ligand binding domain, and 1-147 amino acids, which are GAL4 DNA binding domain, and a reporter plasmid expressing a GAL4 responsive luciferase were transiently introduced into the cells at a proportion of 4:1. After 5 hr from transfection, the cells were detached from the culture dish, and the detached cells (density: 2×10^4 cells/mL) were inoculated by 100 μL in each well of a 96 well white plate (SUMITOMO BAKELITE), and cultured overnight. The medium was removed, the test compound diluted in various concentrations with serum-free Dulbecco's Modified Eagle medium was added by 100 μL, and the mixture was reacted under a 5% carbon dioxide gas stream (5% CO2) at 37° C. for 24 hr. On the other hand, as a positive control, 10 μmol/L of pioglitazone (100 μL) was added, and the mixture was reacted under a 5% carbon dioxide gas stream (5% CO2) at 37° C. for 24 hr. As a substrate of luciferase, 100 μL of Steady-Glo (Promega) was added to each well and the mixture was thoroughly stirred. Immediately thereafter, the chemical luminescence due to luciferase was measured using TopCount NTX (Packard).
The agonist activity (activity rate (%)) of the test compound to PPAR γ was calculated according to the following formula, as a relative activity when the agonist activity on addition of pioglitazone ([…]) was 100%.
Background: In a reporter assay the amount or activity of a reporter protein is the signal.

A short description of series [2]: Metabolic stability evaluation in human liver microsome. It counts as in vitro ADME. The note with it: liver microsomes, pH 7.4; human liver microsome 0.2 mg/mL protein, test compound 1 μmol/L, β-NADPH, 37° C., 30 min; average of two samples; read-out: hCLint (converted). As for the experimental part:
Human liver microsome (pool of 50 donors) was purchased from XenoTech. A reaction mixture containing phosphate buffer (100 mmol/L, pH 7.4), ethylenediamine tetraacetic acid (0.1 mmol/L), magnesium chloride (6 mmol/L), human liver microsome (0.2 mg/mL protein) and test compound (1 μmol/L) was prepared. The reaction mixture was preincubated at 37° C. for 5 min, β-NADPH (1 mmol/L) was added and the mixture was incubated at 37° C. for 30 min. The protein was removed with acetonitrile from the sample after the reaction and the sample was measured by LC-MS/MS. The ratio of the organic solvent in the reaction mixture was set to about 0.5%, and the reaction was performed in 2 samples.
The elimination rate constant (ke) was calculated from the linear regression of the logarithm plot of the residual ratio of the test compound and at 30 min after the reaction, and the liver inherent clearance (Cint) was calculated by the following formula.
[formula] ke: elimination rate constant (1/h) a: concentration (mg/mL) of liver microsome in the reaction mixture b: liver microsome amount per liver unit weight (32.3 mg/g liver) c: liver weight per unit body weight (25.7 g liver/kg body weight) Each test compound was tested in two samples, and the average thereof was calculated.
(In general: Liver microsomes are vesicles of endoplasmic reticulum, rich in cytochrome P450 enzymes.)

Structures are written as SMILES.

This is an account of results in patent US8969345B2, “Dibenzooxepin derivative” (Kyowa Hakko Kirin Co., Ltd., priority 2011, dated 2015).

For the compound `O=c1[nH]c(/C(F)=C2\c3ccc(Cc4c(C5CC5)nc5c(Cl)cccn45)cc3COc3cc(F)ccc32)no1` [Compound 8n, (Z)-3-({8-[(8-chloro-2-cyclopropylimidazo[1,2-a]pyridin-3-yl)methyl]-3-fluorodibenzo[b,e]oxepin-11(6H)-ylidene}fluoromethyl)-1,2,4-oxadiazol-5(4H)-one], the concentration giving a half-maximal response (EC50) in series [1] was determined as 54.5 nM. For the same compound, the CLint scaled at 1 μmol/L in series [2] is 18.3 mL/min/kg.
On the same counts, the results for `[2H]C([2H])([2H])Oc1cccn2c(Cc3ccc4c(c3)COc3cc(F)ccc3/C4=C(\C)c3noc(=O)[nH]3)c(C3CC3)nc12` [Compound 9h, (E)-3-[1-(8-{[2-cyclopropyl-8-(methoxy-d3)-imidazo[1,2-a]pyridin-3-yl]methyl}-3-fluorodibenzo[b,e]oxepin-11(6H)-ylidene)ethyl]-1,2,4-oxadiazol-5(4H)-one] are 11.9 nM and 25 mL/min/kg.
The like results for `C/C(=C1/c2ccc(Cc3c(C4CC4)nc4c(F)cccn34)cc2COc2cc(F)ccc21)c1noc(=O)[nH]1` [Compound 9i, (E)-3-(1-{8-[(2-cyclopropyl-8-fluoroimidazo[1,2-a]pyridin-3-yl)methyl]-3-fluorodibenzo[b,e]oxepin-11(6H)-ylidene}ethyl)-1,2,4-oxadiazol-5(4H)-one] were, in that order, 13.9 nM and 71.7 mL/min/kg.
On the same counts, the results for `C/C(=C1/c2ccc(Cc3c(C4CC4)nc4cc(Cl)ccn34)cc2COc2cc(F)ccc21)c1noc(=O)[nH]1` [Compound 10a, (E)-3-(1-{8-[(7-chloro-2-cyclopropylimidazo[1,2-a]pyridin-3-yl)methyl]-3-fluorodibenzo[b,e]oxepin-11(6H)-ylidene}ethyl)-1,2,4-oxadiazol-5(4H)-one] are 6.4 nM and 102 mL/min/kg.
In turn, `C/C(=C1/c2ccc(Cc3c(C4CC4)nc4cc(F)ccn34)cc2COc2cc(F)ccc21)c1noc(=O)[nH]1` [Compound 10c, (E)-3-(1-{8-[(2-cyclopropyl-7-fluoroimidazo[1,2-a]pyridin-3-yl)methyl]-3-fluorodibenzo[b,e]oxepin-11(6H)-ylidene}ethyl)-1,2,4-oxadiazol-5(4H)-one] had an EC50 in series [1] of 12.7 nM. The CLint scaled at 1 μmol/L in series [2] is 65 mL/min/kg.
The like results for `COCc1nc2cc(Cl)ccn2c1Cc1ccc2c(c1)COc1cc(F)ccc1/C2=C(\C)c1noc(=O)[nH]1` [Compound 10e, (E)-3-{1-(8-{[7-chloro-2-(methoxymethyl)imidazo[1,2-a]pyridin-3-yl]methyl}-3-fluorodibenzo[b,e]oxepin-11(6H)-ylidene)ethyl}-1,2,4-oxadiazol-5(4H)-one] were, in that order, 5.3 nM and 40 mL/min/kg.
The like results for `C/C(=C1/c2ccc(Cc3c(C)nc4cc(C(F)(F)F)ccn34)cc2COc2cc(F)ccc21)c1noc(=O)[nH]1` [Compound 11b, (E)-3-[1-(3-fluoro-8-{[2-methyl-7-(trifluoromethyl)imidazo[1,2-a]pyridin-3-yl]methyl}dibenzo[b,e]oxepin-11(6H)-ylidene)ethyl]-1,2,4-oxadiazol-5(4H)-one] were, in that order, 13.9 nM and 35 mL/min/kg.
On the same counts, the results for `C/C(=C1/c2ccc(Cc3c(C4CC4)nc4nc(C(F)(F)F)ccn34)cc2COc2cc(F)ccc21)c1noc(=O)[nH]1` [Compound 11h, (E)-3-[1-(8-{[2-cyclopropyl-7-(trifluoromethyl)imidazo[1,2-a]pyrimidin-3-yl]methyl}-3-fluorodibenzo[b,e]oxepin-11(6H)-ylidene)ethyl]-1,2,4-oxadiazol-5(4H)-one] are 19 nM and 90 mL/min/kg.
In turn, `O=c1[nH]c(/C(=C2\c3ccc(Cc4c(C5CC5)nc5c(Cl)cccn45)cc3COc3cc(F)ccc32)C2CC2)no1` [Compound 12a, (E)-3-({8-[(8-chloro-2-cyclopropylimidazo[1,2-a]pyridin-3-yl)methyl]-3-fluorodibenzo[b,e]oxepin-11(6H)-ylidene}(cyclopropyl)methyl)-1,2,4-oxadiazol-5(4H)-one] returned an EC50 in series [1] of 18.8 nM. Moreover, the CLint scaled at 1 μmol/L in series [2] was 78.3 mL/min/kg.
The like results for `O=c1[nH]c(/C(=C2\c3ccc(Cc4c(C5CC5)nc5ccccn45)cc3COc3cc(F)ccc32)C2CC2)no1` [Compound 12c] were, in that order, 78.2 nM and 65 mL/min/kg.
The like results for `C/C(=C1/c2ccc(Cn3c(C(C)C)nc(Cl)c3Cl)cc2COc2cc(F)ccc21)c1noc(=O)[nH]1` [Compound 13c, (E)-3-(1-{8-[(4,5-dichloro-2-isopropyl-1H-imidazol-1-yl)methyl]-3-fluorodibenzo[b,e]oxepin-11(6H)-ylidene}ethyl)-1,2,4-oxadiazol-5(4H)-one] were, in that order, 39.9 nM and 88.3 mL/min/kg.
For `COCc1nc2cscc2n1Cc1ccc2c(c1)COc1cc(F)ccc1/C2=C(\C)c1noc(=O)[nH]1` [Compound 13d, (E)-3-[1-(3-fluoro-8-{[2-(methoxymethyl)-1H-thieno[3,4-d]imidazol-1-yl]methyl}dibenzo[b,e]oxepin-11(6H)-ylidene)ethyl]-1,2,4-oxadiazol-5(4H)-one], in series [1], the EC50 is 36.7 nM. Also, in series [2], the CLint scaled at 1 μmol/L is 26.7 mL/min/kg.
As for `CCCc1nc(C)nc(N2CCC2)c1Cc1ccc2c(c1)COc1cc(F)ccc1/C2=C(\C)c1noc(=O)[nH]1` [Compound 13g, (E)-3-[1-(8-{[4-(azetidin-1-yl)-2-methyl-6-propylpyrimidin-5-yl]methyl}-3-fluorodibenzo[b,e]oxepin-11(6H)-ylidene)ethyl]-1,2,4-oxadiazol-5(4H)-one], in series [1], the EC50 was 209 nM. Further, the CLint scaled at 1 μmol/L in series [2] is 65 mL/min/kg.
On the same counts, the results for `C/C(=C1/c2ccc(Cc3c(C4CC4)nc4c(C)nccn34)cc2COc2cc(F)ccc21)c1noc(=O)[nH]1` [Compound 14a, (E)-3-(1-{8-[(2-cyclopropyl-8-methylimidazo[1,2-a]pyrazin-3-yl)methyl]-3-fluorodibenzo[b,e]oxepin-11(6H)-ylidene}ethyl)-1,2,4-oxadiazol-5(4H)-one] are 15.9 nM and 30 mL/min/kg.
Consider `CCCc1nc2c(C)nccn2c1Cc1ccc2c(c1)COc1cc(F)ccc1/C2=C(\C)c1noc(=O)[nH]1` [Compound 14d, (E)-3-(1-{3-fluoro-8-[(8-methyl-2-propylimidazo[1,2-a]pyrazin-3-yl)methyl]dibenzo[b,e]oxepin-11(6H)-ylidene}ethyl)-1,2,4-oxadiazol-5(4H)-one], for which the EC50 in series [1] is 7.4 nM. In series [2], the CLint scaled at 1 μmol/L was 61.7 mL/min/kg.
The like results for `C/C(=C1/c2ccc(Cc3c(C)nc4cc(C5CC5)ccn34)cc2COc2cc(F)ccc21)c1noc(=O)[nH]1` [Compound 14g, (E)-3-(1-{8-[(7-cyclopropyl-2-methylimidazo[1,2-a]pyridin-3-yl)methyl]-3-fluorodibenzo[b,e]oxepin-11(6H)-ylidene}ethyl)-1,2,4-oxadiazol-5(4H)-one] were, in that order, 130 nM and 28.3 mL/min/kg.
With `C#Cc1ccn2c(Cc3ccc4c(c3)COc3cc(F)ccc3/C4=C(\C)c3noc(=O)[nH]3)c(C)nc2c1` [Compound 14h, (E)-3-(1-{8-[(7-ethynyl-2-methylimidazo[1,2-a]pyridin-3-yl)methyl]-3-fluorodibenzo[b,e]oxepin-11(6H)-ylidene}ethyl)-1,2,4-oxadiazol-5(4H)-one], a half-maximal response in series [1] (EC50) required 304 nM. Also, the CLint scaled at 1 μmol/L in series [2] is 36.7 mL/min/kg.

Broadly, the EC50 is the midpoint of the concentration-response curve. Read a low EC50 as greater potency.
